Experiments:
IRAK4 = target: T1, IRAK4 (Homo sapiens, UniProt Q9NWZ3); experiment: RBC HotSpot Kinase Assay, IRAK4; assay type: biochemical; parameters: purchased Reaction Biology (RBC), HotSpot kinase assay; conditions: isolated kinase, 33P-ATP
T1 sequence (Q9NWZ3 1-460): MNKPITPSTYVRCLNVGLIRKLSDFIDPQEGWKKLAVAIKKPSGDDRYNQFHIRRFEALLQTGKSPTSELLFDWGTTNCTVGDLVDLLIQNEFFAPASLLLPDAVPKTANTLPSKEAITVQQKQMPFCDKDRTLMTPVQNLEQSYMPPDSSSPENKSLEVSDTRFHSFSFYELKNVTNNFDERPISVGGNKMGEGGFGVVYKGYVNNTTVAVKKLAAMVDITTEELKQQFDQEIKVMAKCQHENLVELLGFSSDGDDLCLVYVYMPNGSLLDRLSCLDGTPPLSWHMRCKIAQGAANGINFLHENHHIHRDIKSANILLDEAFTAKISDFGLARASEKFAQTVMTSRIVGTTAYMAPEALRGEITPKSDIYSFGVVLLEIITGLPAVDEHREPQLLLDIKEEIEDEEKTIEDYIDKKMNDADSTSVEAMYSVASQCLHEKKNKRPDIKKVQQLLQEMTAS
Text: (§1) This assay uses the isolated kinase enzyme. This assay is very useful for determining competition of the inhibitor for ATP and/or substrates and for measuring the kinetics of enzyme inhibition. […] Unlike kinase binding assays that measure competition for ATP, the HotSpot Kinase Assay is a functional assay that measures catalytic activity; as such it measures relative functional potency regardless of the mechanism of enzyme inhibition. This assay uses the form of the various enzymes that are easiest to express, which may not necessarily be the form of the enzyme that exist in the cell. (Sometimes the carboxy terminus has been truncated to aid in expression, or, if it is a receptor kinase, the enzyme itself is isolated from the other parts of the receptor that are involved in regulating kinase activity.)
(§2) The reagent used was as follows: Base Reaction buffer; 20 mM Hepes (pH 7.5), 10 mM MgCl2, 1 mM EGTA, 0.01% Brij35, 0.02 mg/ml BSA, 0.1 mM Na3VO4, 2 mM DTT, 1% DMSO. Required cofactors were added individually to each kinase reaction.
(§3) The reaction procedure was as follows: • 1) Substrates were prepared in freshly prepared Reaction Buffer. • 2) Any required cofactors were delivered to the substrate solution above. • 3) Kinase was delivered into the substrate solution and gently mixed. • 4) Compounds were delivered in 100% DMSO into the kinase reaction mixture by Acoustic technology (Echo550; nanoliter range), followed by incubation for 20 min at room temp. • 5)^33P-ATP was delivered into the reaction mixture to initiate the reaction. • 6) The mixture was incubated for 2 hours at room temperature. • 7) Kinase activity was detected by P81 filter-binding method.

IRAK1 = target: T2, IRAK1 (Homo sapiens, UniProt P51617); experiment: RBC HotSpot Kinase Assay, IRAK1; assay type: biochemical; conditions: isolated kinase, 33P-ATP
T2 construct: purchased Reaction Biology (RBC), HotSpot kinase assay
Text: as §1, §2, §3

FLT3 = target: T3, FLT3 (Homo sapiens, UniProt P36888); experiment: RBC HotSpot Kinase Assay, FLT3; assay type: biochemical; parameters: purchased Reaction Biology (RBC), HotSpot kinase assay; conditions: isolated kinase, 33P-ATP
T3 sequence (P36888 27-993): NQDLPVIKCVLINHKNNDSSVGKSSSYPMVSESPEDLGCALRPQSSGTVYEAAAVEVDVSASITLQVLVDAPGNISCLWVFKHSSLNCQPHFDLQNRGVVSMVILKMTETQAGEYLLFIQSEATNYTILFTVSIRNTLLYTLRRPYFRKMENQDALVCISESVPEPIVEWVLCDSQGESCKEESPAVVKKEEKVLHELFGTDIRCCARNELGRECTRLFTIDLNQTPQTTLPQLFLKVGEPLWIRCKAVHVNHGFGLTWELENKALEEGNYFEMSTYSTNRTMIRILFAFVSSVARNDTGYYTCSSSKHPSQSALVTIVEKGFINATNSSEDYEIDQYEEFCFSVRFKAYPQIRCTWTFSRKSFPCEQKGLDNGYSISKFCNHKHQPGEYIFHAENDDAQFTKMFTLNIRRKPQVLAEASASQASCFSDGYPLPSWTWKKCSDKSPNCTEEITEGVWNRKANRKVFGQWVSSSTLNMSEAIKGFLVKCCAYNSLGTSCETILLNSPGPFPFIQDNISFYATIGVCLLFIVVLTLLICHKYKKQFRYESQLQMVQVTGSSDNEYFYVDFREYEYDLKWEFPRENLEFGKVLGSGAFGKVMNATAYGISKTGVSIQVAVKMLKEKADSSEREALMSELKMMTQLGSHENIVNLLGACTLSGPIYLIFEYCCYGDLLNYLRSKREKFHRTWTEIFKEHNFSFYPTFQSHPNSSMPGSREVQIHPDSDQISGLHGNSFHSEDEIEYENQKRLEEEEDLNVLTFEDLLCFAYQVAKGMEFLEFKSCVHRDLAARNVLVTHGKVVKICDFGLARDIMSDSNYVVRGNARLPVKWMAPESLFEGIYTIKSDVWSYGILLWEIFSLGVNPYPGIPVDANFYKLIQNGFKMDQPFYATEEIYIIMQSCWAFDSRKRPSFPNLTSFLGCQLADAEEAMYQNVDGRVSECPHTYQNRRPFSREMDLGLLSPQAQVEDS
Text: as §1, §2, §3

MOLM14 D835Y cells = experiment: MOLM14 D835Y cell viability assay (Cell Titer Glo); assay type: cell-based; conditions: Homo sapiens, MOLM-14, 48 h
Description: Both cell lines have activated FLT3 receptors, each of which carry additional resistance mutations in the kinase domain (D835Y and F691L, respectively).
MOLM14 D835Y and MOLM14 F691L cells were grown in RPMI-1640 media supplemented with 20% fetal bovine serum (FBS). For viability/cytotoxicity assessments, cells were seeded into 1536-well white polystyrene tissue culture-treated Greiner plates using a Multidrop Combi dispenser (ThermoFisher), in final volume 5 μL of growth media per well, at a density of 1000 cells per well. After cell addition, 23 nL of test compound were transferred into individual wells (22 doses tested for each test compound, with a 1:2 dilution series starting at 10 μM) via a 1536 pin-tool. Bortezomib (final concentration 2.3 μM) was used as a positive control for cell cytotoxicity. Plates were incubated for 48 hours at standard incubator conditions covered by a stainless steel gasketed lid to prevent evaporation. 48 hours post compound addition, 3 μL of Cell Titer Glo (Promega) were added to each well and plates were incubated at room temperature for 15 minutes with the stainless-steel lid in place. Luminescence readings were taken using a Viewlux imager (PerkinElmer) with a 2 second exposure time per plate.

T2 sequence (P51617 whole entry): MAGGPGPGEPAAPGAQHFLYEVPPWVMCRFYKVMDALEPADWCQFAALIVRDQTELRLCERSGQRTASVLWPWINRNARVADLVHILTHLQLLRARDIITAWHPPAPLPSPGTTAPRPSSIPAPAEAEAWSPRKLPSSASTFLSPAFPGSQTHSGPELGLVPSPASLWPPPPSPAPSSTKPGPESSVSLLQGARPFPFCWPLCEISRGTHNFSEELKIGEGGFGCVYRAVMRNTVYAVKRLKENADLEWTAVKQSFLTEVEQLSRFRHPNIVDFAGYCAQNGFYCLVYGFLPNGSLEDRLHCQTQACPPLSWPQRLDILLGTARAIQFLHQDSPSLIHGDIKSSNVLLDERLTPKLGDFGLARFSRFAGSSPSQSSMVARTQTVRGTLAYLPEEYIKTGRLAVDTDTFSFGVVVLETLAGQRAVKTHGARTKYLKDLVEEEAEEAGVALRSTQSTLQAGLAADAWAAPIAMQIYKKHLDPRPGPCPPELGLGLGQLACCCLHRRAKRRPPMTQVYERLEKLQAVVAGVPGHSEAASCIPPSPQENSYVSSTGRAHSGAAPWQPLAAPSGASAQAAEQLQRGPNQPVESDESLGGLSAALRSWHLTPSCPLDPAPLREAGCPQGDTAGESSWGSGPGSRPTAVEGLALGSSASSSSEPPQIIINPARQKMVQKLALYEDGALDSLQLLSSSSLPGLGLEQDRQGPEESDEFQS

| IC50 (IRAK4) [nM] | IC50 (IRAK1) [nM] | IC50 (FLT3) [nM] | IC50 (MOLM14 D835Y cells) [nM] | Structure (SMILES) |
| --- | --- | --- | --- | --- |
| 2 | 966 | < 0.5 | – | c1cc(N[C@H]2CNCC23CC3)nc(-c2cnc3cnccn23)c1 [Compound 71, (R)-N-(6-(imidazo[1,2-a]pyrazin-3-yl)pyridin-2-yl)-5-azaspiro[2.4]heptan-7-amine] |
| 14 | 4190 | < 0.5 | – | CC1(C)CNCC1Nc1cccc(-c2cnc3cnccn23)n1 (stereo not drawn) [Compound 72] |
| 2 | 622 | < 0.5 | – | C[C@H]1CNC[C@@H]1Nc1cccc(-c2cnc3cnccn23)n1 [Compound 73, 6-(imidazo[1,2-a]pyrazin-3-yl)-N-((3R,4S)-4-methylpyrrolidin-3-yl)pyridin-2-amine] |
| 14 | 4780 | < 0.5 | – | CC1(C)CCNCC1Nc1cccc(-c2cnc3cnccn23)n1 (stereo not drawn) [Compound 74, N-(4,4-dimethylpiperidin-3-yl)-6-(imidazo[1,2-a]pyrazin-3-yl)pyridin-2-amine] |
| 2 | 165 | < 0.5 | – | CCOc1cn2c(-c3cccc(N[C@H]4CNC[C@@H]4F)n3)cnc2cn1 [compound 57, 6-(6-ethoxyimidazo[1,2-a]pyrazin-3-yl)-N-((3S,4S)-4-fluoropyrrolidin-3-yl)pyridin-2-amine] |
| 86 | 7010 | < 0.5 | – | O=C1CC2(COC2)CN1c1cn2c(-c3cccc(N[C@H]4CNC[C@@H]4F)n3)cnc2cn1 [compound 62, 6-(3-(6-(((3S,4S)-4-fluoropyrrolidin-3-yl)amino)pyridin-2-yl)imidazo[1,2-a]pyrazin-6-yl)-2-oxa-6-azaspiro[3.4]octan-7-one] |

The next lines start with the compound.

| Structure (SMILES) | IC50 (IRAK4) [nM] | IC50 (IRAK1) [nM] | IC50 (FLT3) [nM] | IC50 (MOLM14 D835Y cells) [nM] |
| --- | --- | --- | --- | --- |
| C[C@H]1CNC[C@@H]1Nc1cccc(-c2cnc3cnc(C4(C(F)(F)F)CC4)cn23)n1 [Compound 11, N-((3R,4S)-4-methylpyrrolidin-3-yl)-6-(6-(1-(trifluoromethyl)cyclopropyl)imidazo[1,2-a]pyrazin-3-yl)pyridin-2-amine] | 3 | 301 | < 0.5 | 15 |
| FC(F)c1cn2c(-c3cccc(N[C@@H]4CCNC4)n3)cnc2cn1 [Compound 18, (R)-6-(6-(difluoromethyl)imidazo[1,2-a]pyrazin-3-yl)-N-(pyrrolidin-3-yl)pyridin-2-amine] | 1 | 82 | < 0.5 | 14 |
| C[C@H]1CNC[C@@H]1Nc1cccc(-c2cnc3cnc(C(C)(C)O)cn23)n1 [Compound 29, 2-(3-(6-(((3R,4S)-4-methylpyrrolidin-3-yl)amino)pyridin-2-yl)imidazo[1,2-a]pyrazin-6-yl)propan-2-ol] | 1 | 273 | 0.6 | 42 |
| CC(C)(O)Cn1cc(-c2cn3c(-c4cccc(N[C@H]5CNC[C@@H]5F)n4)cnc3cn2)cn1 [Compound 54, 1-(4-(3-(6-(((3S,4S)-4-fluoropyrrolidin-3-yl)amino)pyridin-2-yl)imidazo[1,2-a]pyrazin-6-yl)-1H-pyrazol-1-yl)-2-methylpropan-2-ol] | 5 | 2290 | < 0.5 | – |
| F[C@H]1CNC[C@@H]1Nc1cccc(-c2cnc3cnc(-c4cnn5ccccc45)cn23)n1 [Compound 55, N-((3S,4S)-4-fluoropyrrolidin-3-yl)-6-(6-(pyrazolo[1,5-a]pyridin-3-yl)imidazo[1,2-a]pyrazin-3-yl)pyridin-2-amine] | < 0.5 | 304 | < 0.5 | – |
| COc1cn2c(-c3cccc(N[C@H]4CNC[C@@H]4F)n3)cnc2cn1 [Compound 56, N-((3S,4S)-4-fluoropyrrolidin-3-yl)-6-(6-methoxyimidazo[1,2-a]pyrazin-3-yl)pyridin-2-amine] | 4 | 840 | 0.7 | – |
| CC1(C)CCN(c2cn3c(-c4cccc(N[C@H]5CNC[C@@H]5F)n4)cnc3cn2)C1=O [Compound 61, 1-(3-(6-(((3S,4S)-4-fluoropyrrolidin-3-yl)amino)pyridin-2-yl)imidazo[1,2-a]pyrazin-6-yl)-3,3-dimethylpyrrolidin-2-one] | 46 | 3540 | 2 | – |
| CC1(C)CC(=O)N(c2cn3c(-c4cccc(N[C@H]5CNC[C@@H]5F)n4)cnc3cn2)C1 [Compound 63, 1-(3-(6-(((3S,4S)-4-fluoropyrrolidin-3-yl)amino)pyridin-2-yl)imidazo[1,2-a]pyrazin-6-yl)-4,4-dimethylpyrrolidin-2-one] | 238 | 3430 | < 0.5 | – |
| OC1(C(F)(F)F)CCN(c2cn3c(-c4cccc(N[C@H]5CNC[C@@H]5F)n4)cnc3cn2)C1 (stereo partly drawn) [Compound 66, 1-(3-(6-(((3S,4S)-4-fluoropyrrolidin-3-yl)amino)pyridin-2-yl)imidazo[1,2-a]pyrazin-6-yl)-3-(trifluoromethyl)pyrrolidin-3-ol] | 4 | 6020 | 1 | – |
| F[C@H]1CNC[C@@H]1Nc1cccc(-c2cnc3cnc(N4CCC(F)(F)C4)cn23)n1 [Compound 67, 6-(6-(3,3-difluoropyrrolidin-1-yl)imidazo[1,2-a]pyrazin-3-yl)-N-((3S,4S)-4-fluoropyrrolidin-3-yl)pyridin-2-amine] | 4 | 8190 | 0.7 | – |
| c1cc(N[C@@H]2CCCNC2)nc(-c2cnc3cnccn23)c1 [Compound 69, (R)-6-(imidazo[1,2-a]pyrazin-3-yl)-N-(piperidin-3-yl)pyridin-2-amine] | 15 | 2030 | < 0.5 | – |
| F[C@H]1CCNC[C@@H]1Nc1cccc(-c2cnc3cnccn23)n1 [Compound 70, N-((3S,4S)-4-fluoropiperidin-3-yl)-6-(imidazo[1,2-a]pyrazin-3-yl)pyridin-2-amine] | 20 | 696 | < 0.5 | – |

Source: patent US12612410B2 (CHILDREN'S HOSPITAL MEDICAL CENTER, priority 2020, dated 2026)
